This is an account of results in a melting point compilation (Tetko et al.; mined from patent text by program, amines drawn as free bases though some values may be those of a salt).

A value given as a limit tells only on which side of the number the result lay.

Molecule `CCOC(=O)C1=C(C=NO)Nc2nccn2C1c1cccc([N+](=O)[O-])c1` (centres undefined) came in with a melting point of 229 to 230 °C.

In turn, `CC(=O)Oc1c(C)c(C)c2c(c1C)CCC(O)O2` (centres undefined) had a melting point of 115 to 120 °C.

Turning to `CC(C)(C)c1cc(OCc2ccc(-c3nnn[nH]3)cc2)cc(C(C)(C)C)c1`, the melting point lay within 253 to 255 °C.

In turn, `Cc1nc(-c2cc(Cl)ccc2Cl)n2c1nnc1cc(F)ccc12` yielded a melting point of 186 to 190 °C.

On to `N#Cc1ccc(-c2csc(N3C(=O)OC[C@H]3CF)n2)cc1`, for which the melting point lay in the range of 195 to 196 °C.

`Fc1ccc(-c2[nH]c(C3CCN(Cc4ccccc4)CC3)nc2-c2ccncc2)cc1` showed a melting point of 212 to 215 °C.

For `CNS(=O)(=O)c1cc(C)sc1CC(=O)O`, the melting point is 109 °C.

The molecule `Cn1ncc2c(c1=O)OCCNC2Cc1ccccc1` (centres undefined) gave a melting point of 113 to 115 °C.

On to `COc1ccc(CBr)c(Cl)c1Cl`, for which the melting point lay within 101 to 102 °C.

Take `O=C(O)CN(C(=O)CN1C(=O)c2ccccc2C1=O)c1ccccc1`: the melting point worked out at 224 °C.

Consider `CC12CCC3c4cc([N+](=O)[O-])c(O)cc4CCC3C1CCC2=O` (centres undefined), for which the melting point lay in the range of 178 to 180 °C.

`CP(=O)(O)CC(F)CN` (centres undefined): the melting point lay in the range of 78 to 84 °C.

Take `CC1(C)NC(=O)CN1C(=O)CNC(=O)CN1CC(O)CC1=O` (centres undefined): the melting point was in the range of 227 to 229 °C.

Molecule `CCN(CC)c1ccc(C(=O)c2ccccc2C(=O)O)cc1` displayed a melting point of 184 °C.

In turn, `S=CN1CCC(C(c2ccccc2)c2ccccc2)CC1` gave a melting point of 152 to 154 °C.

`CC(C)Oc1ccc(OCc2ccccc2)cc1-c1nc2cc(CNCC(=O)O)cnc2[nH]1` came in with a melting point of 182 to 184 °C.

`NC(=O)[C@@H]1[C@H](Nc2c(Br)cnc3[nH]c(-c4ccc(CN5CCOCC5)cc4)nc23)[C@H]2C=C[C@@H]1C2` had a melting point of 217 to 219 °C.

For the molecule `COC(=O)c1ccc(Oc2ccc3c(c2)CCN(C2CCN(C4CCC4)CC2)C3=O)cc1`, the melting point fell in the range of 269 to 270 °C.

The molecule `O=c1[nH]nc(Cc2ccc([N+](=O)[O-])cc2)o1` showed a melting point of 170 to 171 °C.

As for `CCCCc1nc2c(N)nc3ccccc3c2n1CCCC(=NOC)c1ccccc1`, the melting point was 198 to 200 °C.

Turning to `COc1cccc(Nc2n[nH]c(N=CN(C)C)c2C#N)c1`, the melting point fell in the range of 227 to 231 °C.

`CCCCCCCCCCCCNC(=O)c1cc(Br)c(OCCNC(=O)OC)c(-c2cccc(C(F)(F)F)c2)c1` came in with a melting point of 79.6 to 80.5 °C.

Molecule `CCCN1CCCC1CNC(=O)c1c(OC)ccc(Br)c1OC` (single isomer, unassigned; (-)) showed a melting point of 103 to 104 °C.

`O=C1CC(c2cccc(-n3ccnc3)c2)=Nc2cc(N3CCOC3=O)c(-c3ccc(F)cc3)cc2N1` returned a melting point of 230 °C.

Turning to `CC(C)(C)OC(=O)N1CCN(Cc2ccccc2)C[C@H]1C(c1ccccc1)c1ccccc1`, the melting point was in the range of 108 to 109 °C.

Turning to `CC(C)N(C(=O)CBr)C(C)C`, the melting point lay within 64 to 65.5 °C.

As to `COc1cc(-c2ccc(N3CCCN(c4ccc(-c5cc(OC)c(O)c(OC)c5)cn4)CC3)nc2)cc(OC)c1O`, the melting point lay within 200 to 202 °C.

Consider `O=Cc1ccccc1SSc1ccccc1C=O`, for which the melting point was determined as 145 °C.

Molecule `O=C1CC(c2csc(-n3ccnc3)n2)=Nc2ccc(-c3ccccc3F)cc2N1` had a melting point of 194 to 197 °C.

Consider `CCCC(NC(=O)C1CC(=O)c2cc(F)ccc2O1)c1ccccc1` (single isomer, unassigned; (+)), for which the melting point was found to be 138 °C.

The molecule `O=C1N=c2cc(O)c(O)cc2=NC1=O` gave a melting point above 350 °C.

Regarding `CCc1nc2c(N)nc3cc(-c4cccnc4)ccc3c2n1CC(C)(C)O`, the melting point was in the range of 245 to 247 °C.

For `N#CCC(=O)Nc1ccc(N)c([N+](=O)[O-])c1`, the melting point was 218 to 221 °C.

In turn, `CSc1ncc(CO)c(N)n1` returned a melting point of 124 to 127 °C.

The molecule `NC(=O)CCCCCOc1cc(-c2ccccc2)cc(-c2ccccc2)n1` yielded a melting point of 118 to 120 °C.

`Cc1nc(N2CCN(Cc3ccc(F)cc3)C2=O)sc1C(=O)NCc1ccc(C(F)F)o1` displayed a melting point of 173 to 174 °C.

In the case of `COc1ccc(C2(c3cccc(C(Cc4ccccc4)Cc4ccccc4)n3)OCCCO2)cc1OC`, the melting point stood at 124 °C.

`O=C1OC(c2ccccc2)=NC1=Cc1cc(Cl)ccc1Sc1cccs1` returned a melting point of 125 to 127 °C.

`CC(Oc1ccc(Oc2ccc(C#N)cc2)cc1)C(=O)Nc1ccccc1` (centres undefined) came in with a melting point of 133 to 134 °C.

The molecule `C/C(=C\c1ccc(C(F)(F)F)cc1)[C@H]1OC[C@H](SCc2ccc(Cl)cc2)CO1` showed a melting point of 93 to 95 °C.

On to `O=C1C(=Cc2ccc(Cl)cc2)C(c2ccc(Cl)cc2)Oc2ccc(O)cc21` (centres undefined), for which the melting point lay in the range of 228 to 230 °C.

`CCNC(=O)Nc1nc2cc(-c3cccnc3)cc(C(=O)NC)n2n1` had a melting point above 300 °C.

Molecule `O=C(O)Cc1ccc(CNC(=O)C2Cc3ccccc3N2S(=O)(=O)c2ccc(-c3cccc(Cl)c3)cc2)cc1` (centres undefined) gave a melting point of 120 °C.

`CCCOc1cc(CCCC2OC(=O)NC2=O)ccc1OCc1nc(-c2ccccc2)oc1C` (centres undefined) yielded a melting point of 119 to 120 °C.

`COc1ccc2nc(Cl)c(C#N)cc2c1`: the melting point lay in the range of 201 to 202 °C.

As to `CCOC(=O)c1c(N)sc(-c2ccc(OC)cc2)c1C`, the melting point is 79 to 80 °C.

`Cc1cc(C(N)=O)cc([N+](=O)[O-])n1` displayed a melting point of 227 to 228 °C.

In turn, `CC(C)Cc1cc(C(N)=O)nn1C` registered a melting point of 118 to 120 °C.

Molecule `Cc1cc(C)c(CSc2ccccc2)c(-c2ccc(F)c(C)c2)c1` displayed a melting point of 72 to 74 °C.

`Cc1cc(C(=O)O)n(-c2ncc(Cl)cc2Cl)n1` came in with a melting point of 227 to 228 °C.

On to `Cc1c(-c2ccc3c(c2)C(N2Cc4ccccc4C2=O)C(O)C(C)(C)O3)c(=O)c1=O` (centres undefined), for which the melting point was above 250 °C.

`CSC1C(=O)Nc2ccc(Oc3ccc(C(F)(F)F)c(Cl)c3)cc21` (centres undefined) had a melting point of 174 to 178 °C.

With `COc1ccc(-c2sc3cnccc3c2OC(C)=O)cc1`, the melting point was in the range of 141 to 142 °C.

`CCOC(=O)C(=O)Nc1cc(C#N)c(C(C)=O)cc1[N+](=O)[O-]` registered a melting point of 142 to 144 °C.

In the case of `CC(=O)Nc1cc2c(cc1Cl)CCN(C)C[C@@H]2c1ccccc1`, the melting point is 105 to 110 °C.

Regarding `CCOC(=O)C(=O)CC(=O)C=Cc1ccc(O)c(OC)c1`, the melting point fell in the range of 97 to 98 °C.

Molecule `c1ccc(OCCSCc2nnc(-c3ccc(OCCN4CCCCCC4)cc3)o2)cc1` returned a melting point of 40 °C.

In turn, `CCc1[nH]c(=O)[nH]c1-c1cc(C(C)(C)C)c(O)c(C(C)(C)C)c1` showed a melting point of 267 to 270 °C.

As for `OCCc1ccc(-c2ccc(Cl)cc2)cc1`, the melting point lay in the range of 113 to 115 °C.

Molecule `COC(=O)Cc1ccc(-c2ccc(OCCN3CCOCC3)cc2)cn1` came in with a melting point of 135 to 137 °C.

In turn, `CC(=O)OC1CSC(Oc2cccc(C(C)=O)c2)C(OC(C)=O)C1OC(C)=O` (centres undefined) had a melting point of 150 to 153 °C.

In the case of `Cc1cc(-c2cccc3[nH]ccc23)nc(N)n1`, the melting point is 242 to 244 °C.

Molecule `CN(Cc1ccccc1)C(=O)CCc1nc(-c2ccc(Cl)cc2)co1` returned a melting point of 99 to 100 °C.

Consider `CCC(=O)NCc1c[nH]c2ccccc12`, for which the melting point lay in the range of 91 to 92 °C.

What is called melting point is the temperature, or range, at which the solid turns liquid.
